The test system of assay [1] is Rhino mouse comedones. The experiment in a line: Comedolytic effect of daily topical application in the Rhino mouse. The assay is classed as in vivo. Conditions: for Comedone Area (% Vehicle): Rhino mouse, topical daily ca. 3 weeks, 70 vol % ethanol / 30 vol % propylene glycol, mean ± SEM, N 6. From the text:
Rhino mice were used to topically test the compounds and compositions of the invention. The Rhino mouse is a well-established animal model used to study the comedolytic effects of anti-acne agents including retinoids. (See Boulcier M et al., 1990, Experimental Models in Skin Pharmacology, In Pharmacological Reviews 42:127-154). The Rhino mouse model was used to study the therapeutic potential of 13Me2.
Animals and dose administration. Rhino mice were enrolled in the study at 6-8 weeks of age and were dosed daily via the topical route. The mice were weighed three times per week and doses were adjusted weekly based on body weight. The topical formulations were applied to the back of the animal in a maximum volume of 100 μL. The topical formulations were made by mixing the 13Me2 with a topical carrier comprising 70 vol % ethanol and 30 vol % propylene glycol, as indicated. The topical vehicle control was the vehicle carrier solution matched to the formulation containing API and vehicle carrier. Mice were sacrificed 72 hours after the final topical dose. At sacrifice, the dorsal skin was collected for histology studies.
Comedolytic effect. The extent of the comedolytic effect (i.e., efficacy) was assessed by measuring the average area of the comedones, whereby the smaller the area, the larger the effect. The comedone area was determined by histological analysis of tissue sections based upon lab methods. Skin was fixed overnight in 4% paraformaldehyde at 4° C. with gentle agitation, and dehydrated the next day into 100% methanol.
Samples were embedded in paraffin and a total of nine 10μ sections 150μ apart were prepared from each Rhino mouse. Five of the nine sections were digitally imaged (6× magnification) for comedone analysis using Metamorph Imaging Software (trace function). The perimeter of each comedone on the images taken from the 5 sections was then traced using a Wacom Intuos 3 Graphics Tablet interfaced with the software.
The number of pixels comprising the area of each individual comedone was obtained, and the mean number of pixels per comedone was obtained for each Rhino mouse. For comedones that were completely healed (area=0) a pixel value approaching 0 (<10) was scored. The individual comedone area average for each mouse was then used to calculate the treatment group mean. Results in the figures are expressed in terms of mean±standard error of the mean.
Preparation of topical formulations containing 13Me2. A concentrated ethanolic stock of 13Me2 was diluted to a final concentration containing 30 vol % propylene glycol and 70 vol % ethanol as the excipient carrier system. The mixture was thoroughly mixed. The topical dosing formulation delivered a predetermined dosing amount of drug on a per kilogram body weight basis. […]

Assay [2] concerns the target T1, Full-length recombinant rat receptor (vitamin D receptor, VDR) (Rattus norvegicus, UniProt P13053).
T1 construct: Full-length recombinant rat receptor was expressed in E. coli; histidine tag (C); made in house; host or cells: E. coli BL21(DE3) Codon Plus RIL
T1 sequence (P13053 1-423): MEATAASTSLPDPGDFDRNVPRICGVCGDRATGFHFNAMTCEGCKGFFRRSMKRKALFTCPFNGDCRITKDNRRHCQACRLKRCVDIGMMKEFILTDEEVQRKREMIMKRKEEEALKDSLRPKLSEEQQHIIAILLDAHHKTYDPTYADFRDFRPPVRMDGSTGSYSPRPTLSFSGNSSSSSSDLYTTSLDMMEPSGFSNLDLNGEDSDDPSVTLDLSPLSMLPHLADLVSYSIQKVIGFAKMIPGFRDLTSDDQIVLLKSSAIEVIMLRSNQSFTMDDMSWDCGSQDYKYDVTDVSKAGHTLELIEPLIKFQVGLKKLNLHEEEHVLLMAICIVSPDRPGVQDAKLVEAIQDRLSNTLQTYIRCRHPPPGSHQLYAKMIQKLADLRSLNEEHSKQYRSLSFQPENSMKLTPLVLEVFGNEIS
In words: Competitive vitamin D receptor binding. Conditions: relative to 1.25(OH)2D3; radioligand 3H-1.25(OH)2D3 1 nM. The protocol: Experimental Methods. […] The first system was a nickel affinity resin that utilizes the C-terminal histidine tag on this protein. The protein that was eluted from this resin was further purified using ion exchange chromatography (S-Sepharose Fast Flow). Aliquots of the purified protein were quick frozen in liquid nitrogen and stored at −80° C. until use. For use in binding assays, the protein was diluted in TEDK50 (50 mM Tris, 1.5 mM EDTA, pH 7.4, 5 mM DTT, 150 mM KCl) with 0.1% Chaps detergent. The receptor protein and ligand concentration was optimized such that no more than 20% of the added radiolabeled ligand was bound to the receptor.
Assay Conditions. […] The hydroxylapaptite was collected by centrifugation and then washed three times with Tris-EDTA buffer (50 mM Tris, 1.5 mM EDTA, pH 7.4) containing 0.5% Titron X-100. After the final wash, the pellets were transferred to scintillation vials containing 4 ml of Biosafe II scintillation cocktail, mixed and placed in a scintillation counter. Total binding was determined from the tubes containing only radiolabeled ligand.

Assay [3] has as its system Human promyelocytic leukemia (HL-60) cells. The experiment in a line: HL-60 cell differentiation (nitro blue tetrazolium reduction). To be noted: four days of treatment. The assay is classed as cell-based. The procedure: HL-60 Differentiation. Test Material. Study Drugs. The study drugs were dissolved in ethanol and the concentrations determined using UV spectrophotometry. Serial dilutions were prepared so that a range of drug concentrations could be tested without changing the final concentration of ethanol (<0.2%) present in the cell cultures.
Cells. Human promyelocytic leukemia (HL-60) cells were grown in RPMI-1640 medium containing 10% fetal bovine serum. The cells were incubated at 37° C. in the presence of 5% CO2.
Assay Conditions. HL-60 cells were plated at 1.2×10^5 cells/ml. Eighteen hours after plating, cells in duplicate were treated with drug. Four days later, the cells were harvested and a nitro blue tetrazolium reduction assay was performed. (Collins et al., 1979, J. Exp. Med. 149:969-974). The percentage of differentiated cells was determined by counting a total of 200 cells and recording the number that contained intracellular black-blue formazan deposits. Verification of differentiation to monocytic cells was determined by measuring phagocytic activity (data not shown).

Assay [4] concerns 24-hydroxylase (24OHase) gene promoter. The experiment in a line: In vitro 24-OHase transcription assay (luciferase reporter in ROS 17/2.8 bone cells). The assay is classed as cell-based. Conditions: ROS 17/2.8 cells, sixteen hours after dosing. The procedure: In vitro Transcription Assay. Transcription activity was measured in ROS 17/2.8 (bone) cells that were stably transfected with a 24-hydroxylase (24OHase) gene promoter upstream of a luciferase reporter gene. (Arbour et al., 1998). Cells were given a range of doses. Sixteen hours after dosing the cells were harvested and luciferase activities were measured using a luminometer. RLU=relative luciferase units.

In assay [5] the test system is intestinal calcium transport. In words: Intestinal calcium transport (everted gut sac method). The assay is classed as in vivo, rat. Conditions: Sprague-Dawley rats, four consecutive intraperitoneal doses. The procedure:
(§1) Intestinal Calcium Transport and Bone Calcium Mobilization Activity. Male, weanling Sprague-Dawley rats were placed on Diet 11 (0.47% Ca) diet+AEK oil for one week followed by Diet 11 (0.02% Ca)+AEK oil for 3 weeks. The rats were then switched to a diet containing 0.47% Ca for one week followed by two weeks on a diet containing 0.02% Ca. Dose administration began during the last week on 0.02% calcium diet. Four consecutive intraperitoneal doses were given approximately 24 hours apart. Twenty-four hours after the last dose, blood was collected from the severed neck and the concentration of serum calcium determined as a measure of bone calcium mobilization. The first 10 cm of the intestine was also collected for intestinal calcium transport analysis using the everted gut sac method.

Assay [6] relates to bone calcium mobilization. In words: Bone calcium mobilization (serum calcium). The assay is classed as in vivo, rat. To be noted: Sprague-Dawley rats, four consecutive intraperitoneal doses. The protocol:
as §1

With `C=C1/C(=C\C=C2/CCC[C@]3(C)[C@@H]([C@H](C)CCCC(C)(C)O)CC[C@@H]23)C[C@@H](O)C[C@@H]1O` [1,25(OH)2D3, 1,25-DIHYDROXYVITAMIN D3, reference compound], the “Comedone Area (% Vehicle)” value in assay [1] (dose 6.0 nmol/kg) is given as 187 ± 30 % Vehicle.

Consider `C=C1[C@H](O)CC(=C/C=C/CC(C)(C)C[C@@H](C)CCCC(C)(C)O)C[C@H]1O` [13Me2, (1R,3R)-5-[(E)-(S)-11′-hydroxy-5′,5′,7′,11′-tetramethyl-dodec-2′-enylidene]-2-methylene-cyclohexane-1,3-diol], for which the “VDR binding affinity compared to the native hormone” value in assay [2] is given as “one log less affinity”. The “HL-60 differentiation activity relative to 1.25(OH)2D3” value in assay [3] is given as “lower than 1.25(OH)2D3 by approximately one log”. Also, the “24-OHase transcription activity relative to 1.25(OH)2D3” value in assay [4] was “lower than 1.25(OH)2D3 by approximately one log”. Besides, in assay [5], the “Activity on intestinal calcium transport” value is on record as “insignificant activity”. In assay [6], the “Activity on bone calcium mobilization” value is on record as “insignificant activity”. In addition, in assay [1] (Rhino mice, topical 217 nmole/kgBW/day, 3 weeks daily), the “Comedone area relative to the vehicle-treated group (FIG. 6)” value is “significant reduction in comedone area”. In addition, the “Comedone area relative to the vehicle-treated group (FIG. 7)” value in assay [1] (Rhino mice, topical 69 and 217 nmole/kgBW/day, 3 weeks daily) was “dose-dependent reduction in comedone area”. The “Comedone Area (% Vehicle)” value in assay [1] (dose 217 nmol/kg) is recorded as 26 ± 3 % Vehicle.

Source of the values: patent US8193171B2, “13,13-dimethyl-des-C,D analogs of 1α,25-dihydroxy-19-nor-vitamin D3 compounds and topical composition dosage forms and methods of treating skin conditions thereof” (Wisconsin Alumni Research Foundation, priority 2008, dated 2012).
